In US11524012B1, “Quinolone analogs and their salts, compositions, and method for their use” (Senhwa Biosciences, Inc., priority 2018, dated 2022):

Experiment: Stability study of lyophilized Compound I with mannitol (Method A / Method B samples)
Format: physicochemical
Settings: Method B sample
Protocol: […] Each 30 mL Type I, clear glass sample vial with 20 mm Freeze Dry Stoppers (Flurotech™ coated) contained 150 mg of Compound I.
At each time point, a vial was removed from the stored condition and reconstituted with 10 mL of D5W and analyzed by HPLC method as discussed in Example 5 at 1 month, 2 months, 3 months, and/or 6 months. In Tables 18-18e, RRT matches the Compounds as shown below.
Sample Preparation—Method A: 10% Mannitol solution was prepared by weighing 200 g±1.0 g of mannitol into glass beaker, adding approximately 1500 mL of WFI (water for injection) to the beaker and stirring until mannitol was dissolved. The mannitol solution was transferred to a 2 L volumetric flask and made to volume with WFI, then poured back to the original beaker to sir and mix further. 1M HCl solution was prepared by adding 16.4 mL of HCl (37%) to a 200 mL volumetric flask containing approximately 100 mL of WFI, adding WFI to make 200 mL in volume, and inverting to mix the prepared solution.
To a tared 2 L Schott bottle containing a magnetic stirrer and wrapped in aluminum foil, 1020 g±1.0 g of the 10% mannitol solution was added. Then, 58.4 g±0.05 g of the 1M HCl solution was added to the 2 L Schott bottle and stirred for approximately 10 minutes. The solution prepared in the 2 L Schott bottle was purged with nitrogen which was continued throughout the manufacturing process. 30.22 g of Compound I (free base) was weighed then added to the 2 L Schott bottle containing 10% mannitol solution and 1 M HCl solution with continual magnetic stirring. The container used to weigh Compound I was rinsed with 3×10 mL of WFI and added to the Schott bottle. After Compound I dissolved (approximately 40 minutes), additional 650 g of WFI was added to the Schott bottle and the solution was stirred for approximately 10 minutes. The pH of the Compound I solution (in Schott bottle) was measured then adjusted to pH 4.5±0.1 using 1 M HCl solution. After each addition of 1 M HCl solution, the solution was stirred for several minutes prior to verifying the pH. Once the pH was adjusted, nitrogen purging was stopped. The pH adjusted Compound I solution was further diluted with WFI to a target weight of 2040 g±1.0 g and stirred.
The final solution (pH adjusted and diluted) was filtered (chain including PVD Fmembrane filter 0.45 μm and 0.22 μm; peristaltic filtration pump by Watson Marlow) in the Bigneat and the bottle containing the filtered solution was sealed. The filtered solution was pumped (Watson Marlow Flexicon PF6-B pump; 100 RPM) into 30 mL Schott Clear Glass vials (10.0 mL filtered solution each). The glass vials were partially stoppered with 20 mm Freeze Dry Stopper Flurotec (Daikyo Seiko) one vial at a time with sterilized utensils inside a fume hood (Envair B101+1.5R) and placed on freeze dryer trays. The freeze dryer trays were transferred into freeze dry chamber and vial probe was positioned (Lyostar II; FTS Kinetics). Lyophilization was performed using the lyophilization cycle listed below. After lyophilization cycle finished, the vials were back filled with N2 and the stopper was placed in situ, wiped down with isopropanol in the fume hood once removed from the freeze dryer, reconciled, then crimped. Seven vials out of 186 sample vials placed under the lyophilization cycle had smashed in the freeze dryer.
Sample Preparation—Method B (dissolved oxygen content ≤1 ppm): 2 L WFI was poured into a Schott bottled and degassed for 30 minutes with N2 until dissolved oxygen content was ≤1 ppm (dissolved oxygen meter and probe; Mettler Toledo). 10% Mannitol solution was prepared by adding […] of mannitol and 1000 mL of degassed WFI to a tared 2 L Schott bottle containing a magnetic stirrer and wrapped in aluminum foil. To the Schott bottle containing mannitol, 15 mL of 2M HCl was added and stirred for approximately 10 minutes. The resulting solution was sparged with N2 while stirring until dissolved oxygen content was ≤1 ppm (approx. 30 min). […]

[1] = 5° C, time not printed (2nd block, col 1)
[2] = 5° C, time not printed (2nd block, col 2)
[3] = 5° C, time not printed (2nd block, col 3)
[4] = 5° C, time not printed (2nd block, col 4)

In the case of Cc1cnc(CNC(=O)c2c(=O)c3ccc(N4CCCN(C)CC4)nc3n3c2sc2ccccc23)cn1 [Compound I, 2-(4-Methyl-[1,4]diazepan-1-yl)-5-oxo-5H-7-thia-1,11b-diaza-benzo[c]fluorene-6-carboxylic acid (5-methyl-pyrazin-2-ylmethyl)-amide], the “pH (USP<791>)” value (5° C, Initial) is reported as 4.6, the Appearance [1] is reported as “Off-white powder” and the “Appearance (Reconstituted Solution)” value [1] is reported as “Clear, colorless”. For the same compound, the “Compound I by HPLC assay” value [1] was 101.7%, the “Related Substances RRT 1.05” value [1] was “RRT 1.05: 0.14%” and the “Related Substances RRT 1.07” value [1] was “RRT 1.07: 0.05%”. The “Related Substances Total” value [1] was “Total:0.2%”, the “Water Content USP<921 Method 1c>” value [1] was 1.37% and the “pH (USP<791>)” value [1] was 4.6. The Appearance [2] was “Off-white powder”, the “Appearance (Reconstituted Solution)” value [2] was “Clear, colorless” and the “Compound I by HPLC assay” value [2] was 101.3%. For the same compound, the “Related Substances RRT 1.05” value [2] was “RRT 1.05: 0.13%”, the “Related Substances Total” value [2] was “Total: 0.1%” and the “Water Content USP<921 Method 1c>” value [2] was 1.29%. The “pH (USP<791>)” value [2] was 4.5, the Appearance [3] was “Off-white powder” and the “Appearance (Reconstituted Solution)” value [3] was “Clear, colorless”. For the same compound, the “Compound I by HPLC assay” value [3] was 100.3%, the “Related Substances RRT 1.05” value [3] was “RRT 1.05: 0.13%” and the “Related Substances Total” value [3] was “Total: 0.1%”. For the same compound, the “Water Content USP<921 Method 1c>” value [3] was 1.05%, the “pH (USP<791>)” value [3] was 4.5 and the Appearance [4] was “Off-white powder”. The “Appearance (Reconstituted Solution)” value [4] was “Clear, colorless”, the “Compound I by HPLC assay” value [4] was 99.1% and the “Related Substances RRT 1.05” value [4] was “RRT 1.05: 0.11%”. For the same compound, the “Related Substances Total” value [4] was “Total: 0.1%”, the “Water Content USP<921 Method 1c>” value [4] was 1.25% and the “pH (USP<791>)” value [4] was 4.5. The Appearance (25° C./60% RH, 1 month) was “White”, the “Appearance (Reconstituted Solution)” value (25° C./60% RH, 1 month) was “Clear, colorless” and the “Compound I by HPLC assay” value (25° C./60% RH, 1 month) was 99.8%. For the same compound, the “Reconstitution Time” value (25° C./60% RH, 1 month) was 55 s, the “Related Substances RRT 1.06” value (25° C./60% RH, 1 month) was 0.17% and the “Related Substances RRT 1.08” value (25° C./60% RH, 1 month) was 0.06%. The “Related Substances Total” value (25° C./60% RH, 1 month) was “Total: 0.2%”, the “Water Content USP<921 Method 1c>” value (25° C./60% RH, 1 month) was 1.47% and the “pH (USP<791>)” value (25° C./60% RH, 1 month) was 4.4. The Appearance (25° C./60% RH, 2 months) was “Off-white”, the “Appearance (Reconstituted Solution)” value (25° C./60% RH, 2 months) was “Clear, colorless” and the “Compound I by HPLC assay” value (25° C./60% RH, 2 months) was 101.0%. For the same compound, the “Related Substances RRT 0.17” value (25° C./60% RH, 2 months) was 0.08%, the “Related Substances RRT 1.04” value (25° C./60% RH, 2 months) was 0.08% and the “Related Substances RRT 1.05” value (25° C./60% RH, 2 months) was 0.17%. The “Related Substances Total” value (25° C./60% RH, 2 months) was “Total: 0.3%”, the “Water Content USP<921 Method 1c>” value (25° C./60% RH, 2 months) was 1.30% and the “pH (USP<791>)” value (25° C./60% RH, 2 months) was 4.6. The Appearance (25° C./60% RH, 3 months) was “Off-white”, the “Appearance (Reconstituted Solution)” value (25° C./60% RH, 3 months) was “Clear, colorless” and the “Compound I by HPLC assay” value (25° C./60% RH, 3 months) was 100.8%. For the same compound, the “Related Substances RRT 0.17” value (25° C./60% RH, 3 months) was 0.09%, the “Related Substances RRT 1.04” value (25° C./60% RH, 3 months) was 0.08% and the “Related Substances RRT 1.05” value (25° C./60% RH, 3 months) was 0.19%. The “Related Substances Total” value (25° C./60% RH, 3 months) was “Total: 0.4%”, the “Water Content USP<921 Method 1c>” value (25° C./60% RH, 3 months) was 1.30% and the “pH (USP<791>)” value (25° C./60% RH, 3 months) was 4.6. The Appearance (25° C./60% RH, 6 months) was “Off-white”, the “Appearance (Reconstituted Solution)” value (25° C./60% RH, 6 months) was “Clear, colorless” and the “Compound I by HPLC assay” value (25° C./60% RH, 6 months) was 100.3%. The “Related Substances RRT 0.88” value (25° C./60% RH, 6 months) was 0.06%, the “Related Substances RRT 1.05” value (25° C./60% RH, 6 months) was 0.16% and the “Related Substances RRT 1.07” value (25° C./60% RH, 6 months) was 0.10%. For the same compound, the “Related Substances Total” value (25° C./60% RH, 6 months) was “Total: 0.3%”, the “Water Content USP<921 Method 1c>” value (25° C./60% RH, 6 months) was 1.30% and the “pH (USP<791>)” value (25° C./60% RH, 6 months) was 4.5. For the same compound, the Appearance (25° C./60% RH, 12 months) was “Off-white”, the “Appearance (Reconstituted Solution)” value (25° C./60% RH, 12 months) was “Clear, colorless” and the “Compound I by HPLC assay” value (25° C./60% RH, 12 months) was 100.7%. The “Related Substances RRT 1.05” value (25° C./60% RH, 12 months) was 0.18%, the “Related Substances RRT 1.07” value (25° C./60% RH, 12 months) was 0.09% and the “Related Substances Total” value (25° C./60% RH, 12 months) was “Total: 0.3%”. The “Water Content USP<921 Method 1c>” value (25° C./60% RH, 12 months) was 1.55%, the “pH (USP<791>)” value (25° C./60% RH, 12 months) was 4.5 and the Appearance (25° C./60% RH, 24 months) was “Off-white”. For the same compound, the “Appearance (Reconstituted Solution)” value (25° C./60% RH, 24 months) was “Clear, colorless” and the “Compound I by HPLC assay” value (25° C./60% RH, 24 months) was 97.6%.
